Source: patent US20230218632A1, “CYCLIC SULFONAMIDE DERIVATIVES AS TRAP1 MODULATORS AND USES THEREOF” (Amathus Therapeutics, Inc., priority 2020, published 2023)

Target: T1, TRAP1 enzyme (Homo sapiens, UniProt Q12931)
T1 sequence (Q12931 60-704): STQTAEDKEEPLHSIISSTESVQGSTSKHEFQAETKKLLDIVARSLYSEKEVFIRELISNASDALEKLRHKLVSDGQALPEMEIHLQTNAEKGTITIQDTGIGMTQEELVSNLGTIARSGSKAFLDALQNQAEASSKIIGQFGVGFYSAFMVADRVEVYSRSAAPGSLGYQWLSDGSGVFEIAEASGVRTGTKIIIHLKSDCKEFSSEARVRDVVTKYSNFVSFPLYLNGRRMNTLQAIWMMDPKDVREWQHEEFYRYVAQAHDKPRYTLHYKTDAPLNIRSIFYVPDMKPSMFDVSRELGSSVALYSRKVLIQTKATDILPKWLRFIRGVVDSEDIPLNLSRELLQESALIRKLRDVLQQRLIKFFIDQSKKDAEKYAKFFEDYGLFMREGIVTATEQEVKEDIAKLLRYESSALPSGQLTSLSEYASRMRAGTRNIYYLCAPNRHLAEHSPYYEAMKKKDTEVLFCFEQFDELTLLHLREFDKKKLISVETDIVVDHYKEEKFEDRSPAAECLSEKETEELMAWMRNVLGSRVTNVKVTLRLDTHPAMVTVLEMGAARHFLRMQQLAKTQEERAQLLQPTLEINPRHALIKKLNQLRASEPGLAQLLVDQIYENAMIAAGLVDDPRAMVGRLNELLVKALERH
Experiment: ADP Glo assay (ATPase activity of TRAP1)
Assay type: biochemical
Conditions: for EC50: 150 nM Trap1, 20 µM ATP, concentration for half maximal activation, read-out: ADP GLO DRC: GeoMean EC50; for Emax: maximal percent activation, read-out: ADP GLO DRC: Mean Emax
How it was run: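 150 nM TRAP1 preincubated 30 min at 37 °C with compound (0.79–100 µM) in 25 mM Pipes pH 7.5, 40 mM KCl, 0.05 mM MgCl2; reaction started with 20 µM ATP, 60 min at 37 °C. ADP quantified by ADP-Glo luminescence against an ATP/ADP standard curve; Emax and EC50 from sigmoidal fits of activation.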

| Compound | EC50 | Emax |
| --- | --- | --- |
| Cn1cnc(C(=O)Nc2ccc3c(c2)S(=O)(=O)N(c2ccc(C(F)(F)F)cc2)CCO3)c1 [Compound 2249] | 30 to 100 µM | 150 to 200% |
| Cc1ocnc1C(=O)Nc1ccc2c(c1)S(=O)(=O)N(c1ccccc1)CCO2 [Compound 2135, N-(1,1-dioxido-2-phenyl-3,4-dihydro-2H-benzo[b][1,4,5]oxathiazepin-8-yl)-5-methyloxazole-4-carboxamide] | 30 to 100 µM | 150 to 200% |
| COCc1oncc1C(=O)Nc1ccc2c(c1)S(=O)(=O)N(c1ccc(C(F)(F)F)cc1)CCO2 [Compound 2257] | 30 to 100 µM | 150 to 200% |
| Cc1nccnc1C(=O)Nc1ccc2c(c1)S(=O)(=O)N(c1ccc(C(F)(F)F)cc1)CCO2 [Compound 2215] | 30 to 100 µM | 129 to 149% |

More lines, now with the values ahead:

| EC50 | Emax | Compound |
| --- | --- | --- |
| < 20 µM | 129 to 149% | Cc1noc(C)c1C(=O)Nc1ccc2c(c1)S(=O)(=O)N(c1ccc(C(F)(F)F)cc1)CCO2 [Compound 2181] |
| 20 to 30 µM | 150 to 200% | O=C(Nc1ccc2c(c1)S(=O)(=O)N(c1ccc(C(F)(F)F)cc1)CCO2)c1ccncc1 [Compound 2234] |
| 30 to 100 µM | 150 to 200% | Cc1ocnc1C(=O)Nc1ccc2c(c1)S(=O)(=O)N(c1ccc(C#N)cc1)CCO2 [Compound 2377, N-(2-(4-cyanophenyl)-1,1-dioxido-3,4-dihydro-2H-benzo[b][1,4,5]oxathiazepin-8-yl)-5-methyloxazole-4-carboxamide] |
| < 20 µM | 129 to 149% | Cn1ccnc1C(=O)Nc1ccc2c(c1)S(=O)(=O)N(c1ccc(C(F)(F)F)cc1)CCO2 [Compound 2090, N-(1,1-Dioxido-2-(4-(Trifluoromethyl)Phenyl)-3,4-Dihydro-2H-Benzo[b][1,4,5]Oxathiazepin-8-yl)-1-Methyl-1H-Imidazole-2-Carboxamide] |
| 20 to 30 µM | > 200% | Cc1cc(C(=O)Nc2cnc3c(c2)S(=O)(=O)N(c2ccc(C(F)(F)F)cc2)CCO3)n(C)n1 [Compound 2495] |
| 30 to 100 µM | > 200% | Cn1ccc(=O)cc1C(=O)Nc1ccc2c(c1)S(=O)(=O)N(c1ccc(C(F)(F)F)cc1)CCO2 [Compound 2516] |
